# According to article PMC8537953 (Viruses, 2021):
# Read-outs that look alike come from different tables or passages of the source.
# Experiments:
# [1] = test system: influenza A; settings: read-out: in vitro EC50 (influenza A); cited from earlier work
# [2] = in vitro; settings: human
# [3] = human, in vivo, cited from earlier work
# [4] = cited from earlier work
# [5] = test system: SARS-CoV-2; settings: read-out: EC50 against SARS-CoV-2; cited from earlier work
# [6] = test system: SARS-CoV-2; assay: microbe, parasite or virus in culture; assay type: cell-based; settings: Severe acute respiratory syndrome coronavirus 2, Vero C1008, 6 h, read-out: % inhibition of SARS-CoV-2 infection, post-entry treatment
structure (smiles),measurement,setting,value
"NC12CC3CC(CC(C3)C1)C2 [Amantadine, amantadine]",EC50,[1],16 µM
same,viability,[2],> 50%
same,Cmax,[3]; 200 mg,2700 nM
same,"PPB, plasma protein binding, % of compound bound to plasma proteins",[4]; plasma,67%
"CC12CC3CC(C)(C1)CC(N)(C3)C2 [Memantine, memantine]","PPB, plasma protein binding, % of compound bound to plasma proteins",[4]; ref FDA reports,45%
"CCC(CC)COC(=O)[C@H](C)N[P@](=O)(OC[C@H]1O[C@@](C#N)(c2ccc3c(N)ncnn23)[C@H](O)[C@@H]1O)Oc1ccccc1 [Remdesivir, remdesivir]",EC50,[5],2.5 µM
"CC(N)C12CC3CC(CC(C3)C1)C2 (centres unmarked) [Rimantadine, rimantadine]",inhibition at 230 µM,[6],> 99%
same,Cmax,[3],2200 nM
